# Test results: patent US20250057864A1, “COMPOSITION FOR IMPROVING EXERCISE PERFORMANCE COMPRISING GYPENOSIDE COMPOUND AS ACTIVE INGREDIENT” (BTC CORPORATION, priority 2022, published 2025)
# Legend:
# C2C12 cells = experiment: Intracellular ROS production in C2C12 cells (DCF-DA); assay type: cell-based, mice; details: oxidative stress by 50 μM TBHP, 1 h pretreatment with test substance
# Protocol: C2C12 cells were dispensed into a 96-well plate at 1×10^4 cells/well and stabilized for 24 hours. Subsequently, the cells were cultured for 1 hour after exchanging with the culture medium with the myocyte differentiation medium containing each test substance. After 1 hour, the cells were washed with PBS and cultured further for 3 hours with a culture medium containing 50 μM tert-butyl hydrogen peroxide (TBHP), and the ROS level in the cells was measured using a DCF-DA assay kit (Abcam) according to the manufacturer's method.
# In order to investigate the effect of each of the compositions according to Examples 1 to 4 on ROS production in C2C12 cells, ROS production was measured using 2′,7′-dichlorofluorescin diacetate (DCF-DA). DCF-DA was measured using the principle that it is oxidized by ROS in cells and is converted to DCF, which emits fluorescence.
# [1] = test system: p-AMPK, p-Sirt1, p-p38, p-Nrf2 in C2C12 cells; experiment: Western blot of proteins related with PGC-1α activation in C2C12 cells; assay type: cell-based, mice; details: C2C12, 0.36 μg/mL (Cr 5 μg/mL), control G1 = 1.00
# Protocol: C2C12 cells were dispensed into a 6-well plate at 2×10^5 cells/well and stabilized for 24 hours. In order to investigate the effect of each test substance on muscle cell differentiation, each test substance was added to the myocyte differentiation medium. The cells were cultured for 4 days (mRNA analysis) or 7 days (protein analysis) after exchanging the cell culture medium with the myocyte differentiation medium treated with each test substance, as shown in Table 2.
# C2C12 cells were dispensed into a 6-well plate at 2×10^5 cells/well and stabilized for 24 hours. The cells were cultured for 7 days after exchanging the culture medium with a myocyte differentiation medium containing the test substance. After the induction of differentiation for 7 days, the cells were homogenized by adding a lysis buffer (20 mmol/L HEPES, pH 7.5, 150 mmol/L NaCl, 1% Triton X-100, 1 mmol/L EDTA, 1 mmol/L EGTA, 100 mmol/L NaF, 10 mmol/L sodium pyrophosphate, 1 mmol/L Na3VO4, 20 μg/mL aprotinin, 10 μg/mL antipain, 10 μg/mL leupeptin, 80 μg/mL benzamidine HCl, 0.2 mmol/L PMSF) and a total cell lysate was obtained through centrifugation. The protein quantity of the total cell lysate was measured using a BCA protein assay kit (Thermo Scientific). The total cell lysate (50 μg) was separated by 10% sodium dodecyl sulfate polyacrylamide gel electrophoresis (SDS-PAGE) and then transferred to a polyvinylidene difluoride membrane (Milipore). The membrane was blocked for 1 hour in 5% skim milk-TBST (20 mmol/L Tris·HCl, pH 7.5, 150 mmol/L NaCl, 0.1% Tween 20) and then incubated for 16 hours at 4° C. or for 1 hour at room temperature after adding antibodies. Thereafter, horseradish peroxidase (HRP)-linked anti-rabbit IgG or HRP-linked anti-mouse IgG was added and the mixture was stirred for 1 hour. The detected protein bands were visualized by enhanced chemiluminescence using a Luminata™ Forte Western HRP substrate (Millipore). The level of protein expression was quantified using the ImageQuant™ LAS 500 imaging system (GE Healthcare Bio-Sciences AB).
# The result of western blot analysis conducted using the total cell lysate obtained by treating with the test substance to investigate the effect of the test substance on the changes in proteins associated with PGC-1α activation is shown in Table 6.
# Based on the western blot analysis result, the activity of each protein was evaluated from the ratio of activation.
smiles,measurement,setting,value
O=C(O)c1ccc2c3c1cccc3c(=O)n1c3ccccc3nc21 [STO],ROS production (fluorescence intensity),C2C12 cells,33.97±2.22 fluorescence intensity
same,p-AMPK/AMPK ratio,[1],significantly inhibited
same,p-Nrf2/Nrf2 ratio,[1],significantly inhibited
same,p-p38/p38 ratio,[1],significantly inhibited
